Results from patent US7498327B2, “Indolylalkylamine metabolites as 5-hydroxytryptamine-6 ligands” (Wyeth, priority 2004, dated 2009).

Target: T1, human cloned 5-HT6 receptors (Homo sapiens, UniProt P50406)
T1 construct: expressed in transfected cells; host or cells: HeLa cells (membrane preparation)
Assay: 5-HT6 binding affinity, [3H]-LSD displacement
Conditions: membranes of Hela cells expressing human cloned 5-HT6 receptors; [3H]-LSD 3.0 nM; 120 min, room temperature

T1 sequence (P50406 whole entry): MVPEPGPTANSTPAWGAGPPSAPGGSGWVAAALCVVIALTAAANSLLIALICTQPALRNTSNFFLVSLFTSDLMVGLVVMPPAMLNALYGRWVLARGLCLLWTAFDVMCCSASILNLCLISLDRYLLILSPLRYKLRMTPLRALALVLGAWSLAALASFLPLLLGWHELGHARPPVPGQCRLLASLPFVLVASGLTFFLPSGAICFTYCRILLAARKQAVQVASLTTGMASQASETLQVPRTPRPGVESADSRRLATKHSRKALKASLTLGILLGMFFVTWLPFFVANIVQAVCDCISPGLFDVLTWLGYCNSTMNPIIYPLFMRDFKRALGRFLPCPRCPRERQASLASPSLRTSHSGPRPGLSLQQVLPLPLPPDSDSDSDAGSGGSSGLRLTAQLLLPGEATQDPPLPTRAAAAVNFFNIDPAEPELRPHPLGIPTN

Ki: 248 nM
SMILES: O=C(O)Cc1cn(S(=O)(=O)c2c(Cl)nc3sccn23)c2ccccc12 [Example 2, {1-[(6-Chloroimidazo[2,1-b][1,3]thiazol-5-yl)sulfonyl]-1H-indol-3-yl}acetic acid]
